Assay results: US10329249B1, “Sulindac derivatives” (KING SAUD UNIVERSITY, priority 2018, dated 2019)

Legend:
[1] = DPPH free radical scavenging (antioxidant activity); conditions: 100 μg/mL compound in 3 mL 0.004% DPPH, 520 nm after 30 min; mean of three replicates ±SD
Experimental: The antioxidant activity was measured based on the scavenging activity of the stable DPPH free radical. 100 μg/mL of the twenty-five sulindac derivative compounds were added to 3 mL 0.004% DPPH solution. Methanol was added to 3 mL 0.004% DPPH solution for the control sample. Absorbance was determined at 520 nm after 30 min. Butylated hydroxytoluene (BHT) was used as a reference drug. The percent inhibition was calculated by the equation:
[formula] where At is the absorbance of the compound and A0 is the absorbance of the control.

melting point | Compound | Scavenging Effect [1]
165 to 167 °C | CC1=C(CC(=O)N/N=C\c2cccc([N+](=O)[O-])c2)c2cc(F)ccc2/C1=C\c1ccc([S+](C)[O-])cc1 (stereo not drawn) [Compound 7] | 49.36 ± 5.57%
233 to 235 °C | COc1cc(OC)c(OC)cc1/C=N\NC(=O)CC1=C(C)/C(=C/c2ccc([S+](C)[O-])cc2)c2ccc(F)cc21 (stereo not drawn) [Compound 9] | 78.97 ± 9.36%
165 to 167 °C | COc1cc(/C=N\NC(=O)CC2=C(C)/C(=C/c3ccc([S+](C)[O-])cc3)c3ccc(F)cc32)cc(OC)c1OC (stereo not drawn) [Compound 10, N′-(3,4,5-trimethoxybenzylidene)-2-((1Z)-1-(4-(methylsulfinyl)benzylidene)-5-fluoro-2-methyl-1H-inden-3-yl)acetohydrazide] | 42.33 ± 18.38%
185 to 187 °C | COc1ccc(/C=N\NC(=O)CC2=C(C)/C(=C/c3ccc([S+](C)[O-])cc3)c3ccc(F)cc32)c(OC)c1 (stereo not drawn) [Compound 13, N′-(2,4-dimethoxybenzylidene)-2-((1Z)-1-(4-(methylsulfinyl)benzylidene)-5-fluoro-2-methyl-1H-inden-3-yl)acetohydrazide] | 23.07 ± 6.95%
203 to 205 °C | COc1cccc(/C=N\NC(=O)CC2=C(C)/C(=C/c3ccc([S+](C)[O-])cc3)c3ccc(F)cc32)c1OC (stereo not drawn) [Compound 14, N′-(2,3-dimethoxybenzylidene)-2-((1Z)-1-(4-(methylsulfinyl)benzylidene)-5-fluoro-2-methyl-1H-inden-3-yl)acetohydrazide] | 62.93 ± 6.72%
230 to 232 °C | COc1ccc(/C=N\NC(=O)CC2=C(C)/C(=C/c3ccc([S+](C)[O-])cc3)c3ccc(F)cc32)cc1OC (stereo not drawn) [Compound 15, N′-(3,4-dimethoxybenzylidene)-2-((1Z)-1-(4-(methylsulfinyl)benzylidene)-5-fluoro-2-methyl-1H-inden-3-yl)acetohydrazide] | 40.60 ± 14.40%
193 to 195 °C | COc1cc(OC)c(/C=N\NC(=O)CC2=C(C)/C(=C/c3ccc([S+](C)[O-])cc3)c3ccc(F)cc32)c(OC)c1 (stereo not drawn) [Compound 16, N′-(2,4,6-timethoxybenzylidene)-2-((1Z)-1-(4-(methylsulfinyl)benzylidene)-5-fluoro-2-methyl-1H-inden-3-yl)acetohydrazide] | 30.80 ± 2.50%
185 to 187 °C | COc1ccc(/C=N\NC(=O)CC2=C(C)/C(=C/c3ccc([S+](C)[O-])cc3)c3ccc(F)cc32)c(OC)c1OC (stereo not drawn) [Compound 17, N′-(2,3,4-timethoxybenzylidene)-2-((1Z)-1-(4-(methylsulfinyl)benzylidene)-5-fluoro-2-methyl-1H-inden-3-yl)acetohydrazide] | 63.56 ± 0.47%
158 to 160 °C | CCOc1ccc(/C=N\NC(=O)CC2=C(C)/C(=C/c3ccc([S+](C)[O-])cc3)c3ccc(F)cc32)cc1OC (stereo not drawn) [Compound 18, N′-(3-methoxy-4-ethoxybenzylidene)-2-((1Z)-1-(4-(methylsulfinyl)benzylidene)-5-fluoro-2-methyl-1H-inden-3-yl)acetohydrazide] | 
218 to 220 °C | COc1cc(/C=N\NC(=O)CC2=C(C)/C(=C/c3ccc([S+](C)[O-])cc3)c3ccc(F)cc32)cc(OC)c1O (stereo not drawn) [Compound 19, N′-(3,5-dimethoxy-4-hydroxybenzylidene)-2-((1Z)-1-(4-(methylsulfinyl)benzylidene)-5-fluoro-2-methyl-1H-inden-3-yl)acetohydrazide] | 
193 to 195 °C | CCOc1cc(/C=N\NC(=O)CC2=C(C)/C(=C/c3ccc([S+](C)[O-])cc3)c3ccc(F)cc32)ccc1O (stereo not drawn) [Compound 20, N′-(3-ethoxy-4-hydroxybenzylidene)-2-((1Z)-1-(4-(methylsulfinyl)benzylidene)-5-fluoro-2-methyl-1H-inden-3-yl)acetohydrazide] | 35.50 ± 9.05%
180 to 182 °C | CC1=C(CC(=O)N/N=C\c2cc(O)ccc2O)c2cc(F)ccc2/C1=C\c1ccc([S+](C)[O-])cc1 (stereo not drawn) [Compound 21, N′-(2,5-dihydroxybenzylidene)-2-((1Z)-1-(4-(methylsulfinyl)benzylidene)-5-fluoro-2-methyl-1H-inden-3-yl)acetohydrazide] | 38.10 ± 10.92%
208 to 210 °C | COc1ccc(/C=N\NC(=O)CC2=C(C)/C(=C/c3ccc([S+](C)[O-])cc3)c3ccc(F)cc32)cc1O (stereo not drawn) [Compound 22, N′-(3-hydroxy-4-methoxybenzylidene)-2-((1Z)-1-(4-(methylsulfinyl)benzylidene)-5-fluoro-2-methyl-1H-inden-3-yl)acetohydrazide] | 51.40 ± 16.66%
210 to 212 °C | COc1cccc(/C=N\NC(=O)CC2=C(C)/C(=C/c3ccc([S+](C)[O-])cc3)c3ccc(F)cc32)c1O (stereo not drawn) [Compound 24] | 27.66 ± 2.12%
195 to 197 °C | CC1=C(CC(=O)N/N=C\c2ccc(O)c(O)c2O)c2cc(F)ccc2/C1=C\c1ccc([S+](C)[O-])cc1 (stereo not drawn) [Compound 25, N′-(2,3,4-trihydroxybenzylidene)-2-((1Z)-1-(4-(methylsulfinyl)benzylidene)-5-fluoro-2-methyl-1H-inden-3-yl)acetohydrazide] | 30.06 ± 3.30%

Second part, the compound before the results:

Compound | melting point | Scavenging Effect [1]
Cc1cc(C(C)(C)C)c(O)c(C(C)(C)C)c1 [BHT, Butylated hydroxytoluene, reference compound] |  | 90.6 ± 3.83%
CC1=C(CC(=O)N/N=C\c2ccccc2[N+](=O)[O-])c2cc(F)ccc2/C1=C\c1ccc([S+](C)[O-])cc1 (stereo not drawn) [Compound 1, N′-(2-nitrobenzylidene)-2-((1Z)-1-(4-(methylsulfinyl)benzylidene)-5-fluoro-2-methyl-1H-inden-3-yl)acetohydrazide] | 148 to 150 °C | 18.53 ± 4.86%
CC1=C(CC(=O)N/N=C\c2ccc([N+](=O)[O-])cc2)c2cc(F)ccc2/C1=C\c1ccc([S+](C)[O-])cc1 (stereo not drawn) [Compound 2, N′-(4-nitrobenzylidene)-2-((1Z)-1-(4-(methylsulfinyl)benzylidene)-5-fluoro-2-methyl-1H-inden-3-yl)acetohydrazide] | 220 to 222 °C | 19.26 ± 5.32%
CC1=C(CC(=O)N/N=C\c2ccccc2)c2cc(F)ccc2/C1=C\c1ccc([S+](C)[O-])cc1 (stereo not drawn) [Compound 3] | 138 to 140 °C | 67.40 ± 9.25%
CC1=C(CC(=O)N/N=C\c2ccc(Cl)cc2)c2cc(F)ccc2/C1=C\c1ccc([S+](C)[O-])cc1 (stereo not drawn) [Compound 4, N′-(4-chlorobenzylidene)-2-((1Z)-1-(4-(methylsulfinyl)benzylidene)-5-fluoro-2-methyl-1H-inden-3-yl)acetohydrazide] | 228 to 230 °C | 39.86 ± 10.80%
CC1=C(CC(=O)N/N=C\c2cccc(O)c2)c2cc(F)ccc2/C1=C\c1ccc([S+](C)[O-])cc1 (stereo not drawn) [Compound 5] |  | 42.20 ± 13.20%
COc1cccc(/C=N\NC(=O)CC2=C(C)/C(=C/c3ccc([S+](C)[O-])cc3)c3ccc(F)cc32)c1 (stereo not drawn) [Compound 6] |  | 71.03 ± 5.31%
CC1=C(CC(=O)N/N=C\c2ccc(O)cc2)c2cc(F)ccc2/C1=C\c1ccc([S+](C)[O-])cc1 (stereo not drawn) [Compound 11, N′-(4-hydroxybenzylidene)-2-((1Z)-1-(4-(methylsulfinyl)benzylidene)-5-fluoro-2-methyl-1H-inden-3-yl)acetohydrazide] |  | 45.06 ± 22.57%
COc1ccccc1/C=N\NC(=O)CC1=C(C)/C(=C/c2ccc([S+](C)[O-])cc2)c2ccc(F)cc21 (stereo not drawn) [Compound 12, N′-(2-methoxybenzylidene)-2-((1Z)-1-(4-(methylsulfinyl)benzylidene)-5-fluoro-2-methyl-1H-inden-3-yl) acetohydrazide] |  | 39.73 ± 15.65%
CC1=C(CC(=O)N/N=C\c2cccc(O)c2O)c2cc(F)ccc2/C1=C\c1ccc([S+](C)[O-])cc1 (stereo not drawn) [Compound 23, N′-(2,3-dihydroxybenzylidene)-2-((1Z)-1-(4-(methylsulfinyl)benzylidene)-5-fluoro-2-methyl-1H-inden-3-yl)acetohydrazide] |  | 33.10 ± 8.41%
